Consider 1 compound from ChEMBL document CHEMBL4020778, “Recent progress towards clinically relevant ATP-competitive Akt inhibitors” (Bioorg Med Chem Lett, 2017).

Data set [1] deals with T1, Serine/threonine-protein kinase Sgk1 (Homo sapiens), O00141 [S422D].
T1 sequence (whole entry): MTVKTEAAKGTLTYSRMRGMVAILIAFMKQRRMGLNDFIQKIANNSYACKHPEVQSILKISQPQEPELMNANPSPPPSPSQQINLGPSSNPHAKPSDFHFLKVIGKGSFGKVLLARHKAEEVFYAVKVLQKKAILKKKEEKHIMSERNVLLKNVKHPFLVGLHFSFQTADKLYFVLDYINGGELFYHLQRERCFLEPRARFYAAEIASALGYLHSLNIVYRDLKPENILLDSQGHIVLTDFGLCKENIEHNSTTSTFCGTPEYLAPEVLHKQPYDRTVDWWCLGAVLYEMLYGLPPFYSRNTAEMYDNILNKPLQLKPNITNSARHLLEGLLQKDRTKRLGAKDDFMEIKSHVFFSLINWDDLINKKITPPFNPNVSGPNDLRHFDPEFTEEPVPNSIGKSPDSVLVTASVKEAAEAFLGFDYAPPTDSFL
In words: Inhibition of human SGK1 S422D mutant (60 to 431 residues) at 10 uM using substrate after 5 mins in presence of [33P]ATP by scintillation counting method relative to control.

Data set [2] deals with Ribosomal protein S6 kinase alpha-1/alpha-3 (Homo sapiens) (UniProt P51812+Q15418). Kind of data set: Inhibition of RSK1/2 (unknown origin) at 10 uM relative to control. The class given is protein assay.
The nature of data set [3]: Ratio of drug level in tumor to plasma in CrTac:Ncr-Fox1nu mouse at 40 mg/kg, po administered once daily for 2 days measured after 24 hrs post last dose. The data set is classed as ADME, organism-based.
Data set [4] concerns Ribosomal protein S6 kinase beta-1 (Homo sapiens), P23443 [T412E]. Kind of data set: Inhibition of human p70S6K T412E mutant (1 to 421 residues) at 10 uM using substrate after 5 mins in presence of [33P]ATP by scintillation counting method relative to control.
For data set [5], the species on record is Homo sapiens. Kind of data set: Inhibition of PKA (unknown origin) at 10 uM relative to control.
For the next data set, the system named is BT-474. In words: Anti-tumor activity against human BT474 cells xenografted in CrTac:Ncr-Fox1nu mouse assessed as reduction in tumor weight at 40 mg/kg, po administered once daily for 2 days measured after 26 days relative to control. The class given is functional. (A xenograft is tissue or cells of one species grown in another, often human tumour cells in immunodeficient mice.)

Data set [6] has as its target Glycogen synthase kinase-3 beta (Homo sapiens) (UniProt P49841). In words: Inhibition of GSK3beta phosphorylation at ser9 in human U87MG cells at >1 uM by Western blot analysis relative to control. The data set is classed as cell-based.
Data set [7] in a line: Half life in Balb/c mouse at 5 mg/kg, iv by LC-MS/MS analysis. The data set is classed as ADME, organism-based. The settings on record: in vivo.
For data set [8], the species on record is Homo sapiens. In words: Inhibition of MSK (unknown origin) at 10 uM relative to control.
For data set [9], the target named is cAMP-dependent protein kinase catalytic subunit alpha (Homo sapiens, UniProt P17612). In words: Inhibition of recombinant human His-tagged PKA catalytic domain (1 to 351 residues) expressed in Escherichia coli using Ser/Thr 7 as substrate after 1 hr by FRET-based Z'-Lyte assay.
Data set [10] has as its target Rho-associated protein kinase 2 (Rattus norvegicus) (UniProt Q62868). Kind of data set: Inhibition of rat ROCK2 (2 to 543 residues) at 10 uM using substrate after 5 mins in presence of [33P]ATP by scintillation counting method relative to control.
In data set [11] the target is Rho-associated protein kinase 1 (Homo sapiens) (UniProt Q13464). Kind of data set: Inhibition of ROCK1 (unknown origin) at 10 uM relative to control.

Bounds are passed on as bounds.

Sequence of Rho-associated protein kinase 2 (Rattus norvegicus) (Q62868 whole entry, looked up, the tested form may be a part): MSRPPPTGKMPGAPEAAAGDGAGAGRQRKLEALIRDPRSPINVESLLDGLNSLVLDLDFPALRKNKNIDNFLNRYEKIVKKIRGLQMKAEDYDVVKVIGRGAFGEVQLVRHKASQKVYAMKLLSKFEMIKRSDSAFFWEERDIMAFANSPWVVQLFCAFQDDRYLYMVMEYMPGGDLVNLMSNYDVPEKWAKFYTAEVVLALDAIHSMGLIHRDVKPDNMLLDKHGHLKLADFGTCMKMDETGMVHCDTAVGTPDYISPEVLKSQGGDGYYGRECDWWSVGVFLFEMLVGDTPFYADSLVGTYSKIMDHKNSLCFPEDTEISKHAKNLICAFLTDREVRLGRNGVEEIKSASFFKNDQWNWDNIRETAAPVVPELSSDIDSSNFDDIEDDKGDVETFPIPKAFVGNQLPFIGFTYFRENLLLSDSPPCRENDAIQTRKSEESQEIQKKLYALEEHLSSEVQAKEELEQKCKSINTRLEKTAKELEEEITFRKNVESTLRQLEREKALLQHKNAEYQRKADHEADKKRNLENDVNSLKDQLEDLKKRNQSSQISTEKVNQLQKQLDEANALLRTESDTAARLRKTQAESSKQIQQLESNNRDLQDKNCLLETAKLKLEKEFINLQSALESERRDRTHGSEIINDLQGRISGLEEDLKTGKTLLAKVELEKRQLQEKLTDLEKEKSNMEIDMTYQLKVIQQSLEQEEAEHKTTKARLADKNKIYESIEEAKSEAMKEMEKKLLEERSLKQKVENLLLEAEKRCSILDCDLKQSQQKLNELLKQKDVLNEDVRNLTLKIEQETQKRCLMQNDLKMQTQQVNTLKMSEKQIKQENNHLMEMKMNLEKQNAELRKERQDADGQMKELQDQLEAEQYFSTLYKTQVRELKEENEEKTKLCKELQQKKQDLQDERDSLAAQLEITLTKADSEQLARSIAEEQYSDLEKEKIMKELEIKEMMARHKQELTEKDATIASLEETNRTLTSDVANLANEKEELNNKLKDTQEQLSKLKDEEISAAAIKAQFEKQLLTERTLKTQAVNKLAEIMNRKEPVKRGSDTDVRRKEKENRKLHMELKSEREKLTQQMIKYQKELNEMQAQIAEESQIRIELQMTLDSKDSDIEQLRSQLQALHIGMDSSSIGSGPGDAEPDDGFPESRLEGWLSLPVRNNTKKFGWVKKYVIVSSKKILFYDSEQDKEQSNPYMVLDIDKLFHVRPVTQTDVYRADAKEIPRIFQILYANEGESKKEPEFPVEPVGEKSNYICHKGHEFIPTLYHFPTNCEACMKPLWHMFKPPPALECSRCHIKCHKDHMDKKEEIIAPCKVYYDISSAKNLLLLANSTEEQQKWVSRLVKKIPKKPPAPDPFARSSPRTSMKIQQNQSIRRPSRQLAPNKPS
Sequence of Rho-associated protein kinase 1 (Homo sapiens) (Q13464 2-1354 limits assumed): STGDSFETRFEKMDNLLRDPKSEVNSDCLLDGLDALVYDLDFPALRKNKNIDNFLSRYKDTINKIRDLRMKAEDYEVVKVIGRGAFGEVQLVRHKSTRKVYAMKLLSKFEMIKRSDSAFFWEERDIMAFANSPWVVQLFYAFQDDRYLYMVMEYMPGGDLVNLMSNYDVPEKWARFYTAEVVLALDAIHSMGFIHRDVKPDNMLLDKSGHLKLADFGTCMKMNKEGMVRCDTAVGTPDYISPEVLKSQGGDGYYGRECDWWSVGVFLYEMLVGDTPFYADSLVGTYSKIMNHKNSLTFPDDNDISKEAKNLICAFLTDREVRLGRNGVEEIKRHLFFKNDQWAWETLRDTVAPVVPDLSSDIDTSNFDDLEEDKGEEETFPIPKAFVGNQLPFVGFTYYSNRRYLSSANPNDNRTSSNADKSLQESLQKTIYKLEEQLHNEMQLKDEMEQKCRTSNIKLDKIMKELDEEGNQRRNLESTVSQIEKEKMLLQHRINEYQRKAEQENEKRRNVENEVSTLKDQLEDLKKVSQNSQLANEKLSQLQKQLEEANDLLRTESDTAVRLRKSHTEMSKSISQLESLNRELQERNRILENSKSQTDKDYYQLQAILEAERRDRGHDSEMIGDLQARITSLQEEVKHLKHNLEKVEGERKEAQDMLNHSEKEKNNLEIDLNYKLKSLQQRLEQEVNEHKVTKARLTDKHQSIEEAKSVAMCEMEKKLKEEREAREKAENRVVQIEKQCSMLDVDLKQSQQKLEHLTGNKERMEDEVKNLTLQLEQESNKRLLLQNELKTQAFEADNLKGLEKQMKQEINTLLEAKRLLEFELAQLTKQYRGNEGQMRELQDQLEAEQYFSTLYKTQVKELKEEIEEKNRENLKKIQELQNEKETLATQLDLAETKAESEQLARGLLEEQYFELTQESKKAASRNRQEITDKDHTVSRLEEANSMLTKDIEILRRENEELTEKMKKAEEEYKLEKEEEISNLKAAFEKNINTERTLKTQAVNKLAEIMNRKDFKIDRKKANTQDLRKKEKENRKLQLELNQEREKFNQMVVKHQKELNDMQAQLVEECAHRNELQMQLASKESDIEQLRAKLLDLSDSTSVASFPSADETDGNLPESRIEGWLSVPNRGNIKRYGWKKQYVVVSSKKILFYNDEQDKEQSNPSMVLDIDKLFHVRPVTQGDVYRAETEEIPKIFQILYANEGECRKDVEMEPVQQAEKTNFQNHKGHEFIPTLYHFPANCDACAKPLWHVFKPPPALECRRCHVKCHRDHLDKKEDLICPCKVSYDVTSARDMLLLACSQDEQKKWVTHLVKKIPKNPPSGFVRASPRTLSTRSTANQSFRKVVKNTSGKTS
Sequence of Glycogen synthase kinase-3 beta (Homo sapiens) (P49841 whole entry, looked up): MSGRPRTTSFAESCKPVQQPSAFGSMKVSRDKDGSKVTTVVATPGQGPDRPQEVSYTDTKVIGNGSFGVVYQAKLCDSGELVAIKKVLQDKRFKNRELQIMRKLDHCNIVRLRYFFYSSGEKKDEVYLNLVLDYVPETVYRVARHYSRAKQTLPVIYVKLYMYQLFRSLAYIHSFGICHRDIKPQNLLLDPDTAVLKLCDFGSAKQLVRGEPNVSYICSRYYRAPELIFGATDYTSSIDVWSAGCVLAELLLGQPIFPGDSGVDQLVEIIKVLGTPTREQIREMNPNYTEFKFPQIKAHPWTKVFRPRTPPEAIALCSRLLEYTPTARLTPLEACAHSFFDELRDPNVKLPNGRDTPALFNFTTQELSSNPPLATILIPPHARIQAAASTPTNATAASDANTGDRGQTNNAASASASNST
Sequence of Ribosomal protein S6 kinase beta-1 (Homo sapiens), P23443 [T412E] (P23443 whole entry T412E, looked up, the tested form may be a part): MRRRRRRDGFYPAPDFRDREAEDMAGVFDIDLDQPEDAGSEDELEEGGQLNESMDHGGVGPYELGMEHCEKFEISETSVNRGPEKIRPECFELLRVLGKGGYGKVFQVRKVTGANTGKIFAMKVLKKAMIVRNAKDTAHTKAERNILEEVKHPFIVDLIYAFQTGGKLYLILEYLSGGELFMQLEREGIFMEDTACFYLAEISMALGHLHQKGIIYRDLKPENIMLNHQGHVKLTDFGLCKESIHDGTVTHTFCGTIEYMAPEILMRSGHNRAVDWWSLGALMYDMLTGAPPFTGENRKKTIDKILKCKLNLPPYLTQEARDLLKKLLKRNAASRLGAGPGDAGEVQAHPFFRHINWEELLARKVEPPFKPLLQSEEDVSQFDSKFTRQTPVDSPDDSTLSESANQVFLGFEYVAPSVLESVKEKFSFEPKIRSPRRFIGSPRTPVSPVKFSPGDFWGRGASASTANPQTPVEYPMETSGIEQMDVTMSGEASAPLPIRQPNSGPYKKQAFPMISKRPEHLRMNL

For `NC[C@@](O)(c1ccc(Cl)cc1)c1ccc(-c2cn[nH]c2)cc1` [AT-13148], the inhibition in data set [1] is above 80%; in [2] it was above 80%; in [4], above 80%; in the data set listed under Homo sapiens [5], above 80%; in data set [6], 50%; in the data set filed under Homo sapiens [8], above 80%. Further, the inhibition in [10] and in data set [11] was above 80% throughout. In addition, the partition ratio (Kp) at 24 h in data set [3] was found to be 13.6. Also, the T/C in the data set on BT-474 is 36%. Also, in data set [7], the half-life is 2.8 h. Besides, the IC50 in [9] is below 10 nM.

One may read the inhibition as how much of the control response was suppressed. The Kp is the ratio of the level in a tissue or fluid to that in plasma or blood. As usually defined, the T/C is the ratio of treated to control. As a reminder, the half-life is the time in which the quantity being followed falls by half. Low readings indicate fast loss, high ones slow loss. The term IC50 denotes the concentration that inhibits the measured activity by half.
